Data taken from ChEMBL document CHEMBL2311451, “Discovery of a selective M₄ positive allosteric modulator based on the 3-amino-thieno[2,3-b]pyridine-2-carboxamide scaffold: development of ML253, a potent and brain penetrant compound that is active in a preclinical model of schizophrenia” (Bioorg Med Chem Lett, 2013).

Assays:
[1] = biological target: T1, Muscarinic acetylcholine receptor M4 (Homo sapiens) (UniProt P08173); test: Positive allosteric modulation of human muscarinic M4 receptor expressed in CHO-K1 cells assessed as leftward shift in acetylcholine response treated for 144 secs prior to acetylcholine addition measured for 5 mins by Fluo-4-AM based calcium mobilization assay relative to control; type: functional, cell-based
T1 sequence (whole entry): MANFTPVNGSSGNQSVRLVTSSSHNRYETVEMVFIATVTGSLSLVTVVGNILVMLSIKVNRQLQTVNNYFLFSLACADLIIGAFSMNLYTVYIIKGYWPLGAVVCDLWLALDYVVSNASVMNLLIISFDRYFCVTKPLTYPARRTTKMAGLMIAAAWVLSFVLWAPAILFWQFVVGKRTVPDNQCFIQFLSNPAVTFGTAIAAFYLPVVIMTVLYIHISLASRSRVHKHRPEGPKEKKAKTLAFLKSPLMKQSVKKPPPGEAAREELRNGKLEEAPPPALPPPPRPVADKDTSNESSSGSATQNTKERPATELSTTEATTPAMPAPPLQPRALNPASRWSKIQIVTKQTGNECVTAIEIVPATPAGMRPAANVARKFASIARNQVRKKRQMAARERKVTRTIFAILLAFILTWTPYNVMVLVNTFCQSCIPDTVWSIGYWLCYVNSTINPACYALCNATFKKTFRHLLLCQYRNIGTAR

[2] = biological target: T2, Muscarinic acetylcholine receptor M4 (Homo sapiens, UniProt P08173); test: Positive allosteric modulation of human muscarinic M4 receptor expressed in CHO-K1 cells assessed as leftward shift in acetylcholine response treated for 144 secs prior to acetylcholine addition measured for 5 mins by Fluo-4-AM based calcium mobilization assay; type: functional, cell-based; details: read-out: EC50
T2 sequence (P08173 whole entry): T1 sequence (whole entry)

[3] = biological target: T3, Muscarinic acetylcholine receptor M4 (Rattus norvegicus, UniProt P08485); test: Positive allosteric modulation of rat muscarinic M4 receptor assessed as acetylcholine response
T3 sequence (P08485 whole entry): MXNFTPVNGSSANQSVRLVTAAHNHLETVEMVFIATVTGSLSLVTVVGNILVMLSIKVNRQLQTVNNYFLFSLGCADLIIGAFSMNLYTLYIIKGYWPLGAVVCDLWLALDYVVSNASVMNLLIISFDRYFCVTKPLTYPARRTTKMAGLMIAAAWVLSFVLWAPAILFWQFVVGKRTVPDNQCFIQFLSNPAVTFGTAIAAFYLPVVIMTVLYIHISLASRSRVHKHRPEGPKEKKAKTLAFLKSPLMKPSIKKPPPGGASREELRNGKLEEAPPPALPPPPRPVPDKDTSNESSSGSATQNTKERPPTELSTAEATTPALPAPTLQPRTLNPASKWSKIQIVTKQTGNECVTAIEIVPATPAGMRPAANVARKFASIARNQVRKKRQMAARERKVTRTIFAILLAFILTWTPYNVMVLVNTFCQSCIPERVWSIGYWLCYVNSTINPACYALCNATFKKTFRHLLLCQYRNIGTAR

Row | Compound | %max [1] [%] | EC50 [2] [nM] | EC50 [3] [nM]
1 | Cc1nc2sc(C(=O)NC3CCOCC3)c(N)c2c(C)c1Cl | 78.6 | 289 | 
2 | Cc1nc2sc(C(=O)NC3CCCCC3)c(N)c2c(C)c1Cl | 41.4 | 226 | 
3 | Cc1nc2sc(C(=O)NCc3ccc(Cl)cc3)c(N)c2c(C)c1Cl | 33.2 | 180 | 
4 | Cc1nc2sc(C(=O)NC(C)c3ccncc3)c(N)c2c(C)c1Cl (configuration not stated) | 64.1 | 600 | 
5 | Cc1nc2sc(C(=O)NCc3cnccn3)c(N)c2c(C)c1Cl | 83.1 | 294 | 
6 | Cc1nc2sc(C(=O)NC(C)C)c(N)c2c(C)c1Cl | 77.3 | 147 | 
7 | Cc1nc2sc(C(=O)NCc3ccccc3Cl)c(N)c2c(C)c1Cl | 32.4 | 160 | 
8 | Cc1nc2sc(C(=O)NC3CCOC3)c(N)c2c(C)c1Cl (configuration not stated) | 92.2 | 52 | 
9 | Cc1cc(OCc2ccncc2)nc2sc(C(=O)NCc3cccc(F)c3F)c(N)c12 |  | 500 | 900
10 | Cc1nc2sc(C(=O)NC(C)c3cccnc3)c(N)c2c(C)c1Cl (configuration not stated) | 57.3 | 669 | 
11 | Cc1nc2sc(C(=O)NC3COC3)c(N)c2c(C)c1Cl | 69.9 | 2010 | 
12 | Cc1nc2sc(C(=O)NCc3cccnc3)c(N)c2c(C)c1Cl | 84.9 | 208 | 
13 | Cc1nc2sc(C(=O)NCCc3ccccn3)c(N)c2c(C)c1Cl | 61.7 | 844 | 
14 | Cc1nc2sc(C(=O)NCc3nccs3)c(N)c2c(C)c1Cl | 65.1 | 249 | 
15 | Cc1nc2sc(C(=O)NCc3ccc4c(c3)OCO4)c(N)c2c(C)c1Cl | 71.7 | 80 | 
16 | COc1ccc(CNC(=O)c2sc3nc(C)c(Cl)c(C)c3c2N)cc1 | 83.6 | 107 | 
17 | Cc1nc2sc(C(=O)NCc3ccnnc3)c(N)c2c(C)c1Cl | 74.5 | 326 | 
18 | CCOc1ccc(NC(=O)c2sc3nc(C)c(Cl)c(C)c3c2N)cc1 |  | > 30000 | 
19 | Cc1nc2sc(C(=O)NCC3CCCCC3)c(N)c2c(C)c1Cl | 69.7 | 1410 | 
